According to patent US12617779B2, “Self degradation-type CDK9 inhibitor prodrug and liposome encapsulating same” (Sumitomo Pharma Co., Ltd., priority 2021, dated 2026):
Each block holds one compound with its values, some of them ahead of it.

What was measured:
[1] = Liposome encapsulation test, remote loading method (Experimental Example 4); format: physicochemical;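 for Encapsulation efficiency: encapsulated compound as percent of compound amount introduced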;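 for Encapsulation rate: encapsulated compound as percent of compound in liposome solution after insolubles removed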
Method: For Example 1, Example 2, Example 3, Example 4, Example 5, Example 6, Example 7, Example 8, Example 9, Example 10, Example 11, Example 12, Example 13, Example 14, Example 15, Example 16, Example 17 and Alvocidib, an encapsulation test in liposomes was performed using a remote loading method.
<Liposome Encapsulation Test of Example 1, Example 2, Example 5, Example 6, Example 9, Example 10, Example 11, Example 12, Example 13, Example 14, Example 15, and Example 16>
(§1) Hydrogenated soybean phosphatidylcholine (COATSOME NC-21E, manufactured by NOF CORPORATION, 7.77 g), cholesterol (manufactured by Sigma, 2.78 g) and distearoylphosphatidylethanolamine-methoxypolyethylene glycol 2000 (SUNBRIGHT DSPE-020CN, manufactured by NOF CORPORATION, 2.47 g) were dissolved in tert-butyl alcohol (720 mL) warmed to 65° C. The solution was placed in an eggplant flask and frozen in a dry ice-acetone bath, and then the tert-butyl alcohol was removed by evaporation under reduced pressure to give a lipid mixture.
To the above lipid mixture was added a 250 mM ammonium sulfate solution (240 mL), and the mixture was warmed to 65° C., and dispersed by a homogenizer (ULTRA-TURRAX, manufactured by IKA) to give a crude liposome dispersion. Then, the crude liposome dispersion was dispersed by a high pressure homogenizer (Nano-Mizer NM2, manufactured by YOSHIDA KIKAI CO., LTD.) at a pressure of 100 MPa to give liposomes with an average particle size (Z-average) of about 80 nm. The liposome outer solution was replaced with 10 mM L-histidine/10% sucrose solution (pH 6.5) using a dialysis cassette (Slide-A-Lyzer G2 Dialysis Cassettes 20K MWCO, manufactured by Thermo Scientific) to give an empty liposome solution. The solution was filtered through a 0.22 μm membrane filter, and a 10 mM L-histidine/10% sucrose solution (pH 6.5) was added thereto to adjust the total lipid concentration to 50 mM (50 μmol/mL). The lipid concentration was determined by quantitatively analyzing cholesterol using HPLC and calculating the total lipid concentration from the lipid mixing ratio. The amount for the above adjustment was increased or decreased as appropriate.
The compound (10 mg) was weighed, and the empty liposome solution (1 mL) with a total lipid concentration of 50 mM was added thereto. The solution was adjusted to pH 5 to 6 with 1 mol/L hydrochloric acid or 1 mol/L aqueous sodium hydroxide solution as necessary, warmed in a 65° C. water bath for 2 to 3 minutes, and ice-cooled. The mixture was centrifuged at 15,000×g for 5 minutes to precipitate and remove insoluble substances.
The liposome solution (100 μL) after removing insoluble substances was taken on an ultrafiltration filter (Amicon Ultra, 100K, 0.5 mL, manufactured by Merck) and centrifuged at 4° C., 15,000×g for 10 minutes. The compound concentrations in the liposome solution after removing insoluble substances and in the filtrate after ultrafiltration were determined by HPLC, and the encapsulation rate, encapsulation efficiency, and encapsulated compound content per 50 μmol of lipid were calculated by the following formula.
The measurement conditions for HPLC are as follows.
An empty liposome solution with a total lipid concentration of 75 mM was prepared by the same procedure as for the above example compound group. Each compound was weighed, and the empty liposome solution with a total lipid concentration of 75 mM was added thereto such that the compound concentration became 15 mg/mL. The solution was adjusted to pH 5 to 6 with 1 mol/L hydrochloric acid or 1 mol/L aqueous sodium hydroxide solution, warmed in a 65° C. water bath for 3 minutes, and ice-cooled. Hereafter, the encapsulation rate and encapsulation efficiency were calculated by the same procedure as for the above example compound group. The encapsulated compound content per 50 μmol of lipid was calculated by the following formula.
[formula] <Liposome Encapsulation Test of Example 7, Example 8 and Example 17> […]

[2] = Pharmacokinetic test, intravenous solution and liposome formulations in mice (Experimental Example 6); format: in vivo; details: female BALB/c mice
Method: This was used as a solution formulation.
This was used as a liposome formulation.
as §1, with “3.238” for “7.77”, “1.160” for “2.78”, “1,2-disteroyl-rac-glycero-3-methylpolyoxyethylen” for “distearoylphosphatidylethanolamine-methoxypolyethylene glycol”, “GS-020,” for “DSPE-020CN,”, “0.983” for “2.47”, “(300” for “(720”
To the above lipid mixture was added to a 250 mM ammonium sulfate solution (100 mL), and the mixture was warmed to 65° C., and dispersed by a homogenizer (ULTRA-TURRAX, manufactured by IKA) to give a crude liposome dispersion. […] The solution was filtered through a 0.22 μm membrane filter to adjust the total lipid concentration to 75 mM (75 μmol/mL). […] The solution was adjusted to pH 5 to 6 with 1 mol/L aqueous sodium hydroxide solution, warmed in a 65° C. water bath for 3 minutes, and ice-cooled. The liposome outer solution was replaced with 10 mM tartrate buffer solution/10% sucrose solution (pH 4) using a dialysis cassette (Slide-A-Lyzer G2 Dialysis Cassettes 20K MWCO, manufactured by Thermo Scientific), followed by filtration through a 0.22 μm membrane filter to adjust the concentration.
The solution formulation or liposome formulation was instantly administered intravenously to 7-week-old female BALB/c mice, and the blood was collected over time from the jugular vein without anesthesia up to 24 hours after administration for the solution formulation administration group and up to 72 hours after administration for the liposome formulation administration group. […] The plasma sample was centrifuged, and the concentrations of the test compound and Alvocidib in the obtained supernatant were determined by LC-MS/MS.

[3] = Evaluation of conversion rate to active form in BALB/c mouse plasma (Experimental Example 3); format: in vitro ADME; details: BALB/c, mouse, 0.2 μmol/L
Method: (§2) For Example 1, Example 2, Example 3, Example 4, Example 5, Example 6, Comparative Example 3, Comparative Example 4, Comparative Example 6, Comparative Example 7, Comparative Example 8, Comparative Example 9, Comparative Example 10 and Comparative Example 12, the attrition rate of the test compound and the conversion rate of the test compound to Alvocidib in human plasma and BALB/c mouse plasma were calculated by the following method.
(§3) The test compound was added to human plasma or BALB/c mouse plasma at a concentration of 0.2 μmol/L, and incubated at 37° C. The peak areas of the test compound and Alvocidib in the sample were determined by LC-MS/MS after 0, 30 and 60 minutes for Example 1, Example 2, Example 3, Example 4, Example 5 and Example 6, and after 0, 60 and 120 minutes for Comparative Example 3, Comparative Example 4, Comparative Example 6, Comparative Example 7, Comparative Example 8, Comparative Example 9, Comparative Example 10 and Comparative Example 12, and the attrition rate of the test compound and the conversion rate of the test compound to Alvocidib were calculated by the following formula. Attrition rate of test compound (%):(peak area of test compound in sample/peak area of test compound in sample after 0 minute)×100 Conversion rate to Alvocidib (%):(peak area of Alvocidib in sample/peak area of Alvocidib in reaction solution containing 0.2 μmol/L Alvocidib)×100
(§4) The measurement conditions for LC-MS/MS are as follows. • HPLC: Prominence system (Shimadzu Corporation) • MS/MS: • Example 1, Example 2, Example 3, Example 4, Example 5, Example 6, Comparative Example 8 (mouse), Comparative Example 10 (mouse) and Comparative Example 12 (mouse) • QTRAP5500 (SCIEX) • Comparative Example 6, Comparative Example 7, Comparative Example 8 (human), Comparative Example 9, Comparative Example 10 (human) and Comparative Example 12 (human) • 4000 QTRAP (SCIEX) • column: • other than Example 3 and Example 4 • Cadenza CD-C18, 3 μm, 50×2 mm (Imtakt Corporation) • Example 3 and Example 4 • Kinetex C8, 2.6 μm, 50×2.1 mm (Phenomenex) • column temperature: 40° C. • mobile phase: • A: water containing 0.1% formic acid • B: acetonitrile containing 0.1% formic acid • A/B (min): • Example 1, Example 2, Example 5, Example 6, Comparative Example 8 (mouse), Comparative Example 10 (mouse) and Comparative Example 12 (mouse) • 90/10(0)→40/60(5.0)→10/90(5.1)→10/90(6.5)→90/10(6.6)→90/10(8.0) • Example 3 and Example 4 • 86/14(0)→86/14(3.5)→10/90(5.5)→10/90(6.5)→86/14(6.6)→86/14(9.5) • Comparative Example 6, Comparative Example 7, Comparative Example 8 (human), Comparative Example 9, Comparative Example 10 (human) and Comparative Example 12 (human) • 90/10(0)→10/90(2.5)→10/90(3.5)→90/10(3.6)→90/10(5.0) • flow rate: 0.4 mL/min • detection: ESI (positive mode) • injection: 1 to 5 μL

[4] = Evaluation of conversion rate to active form in buffer solution (Experimental Example 1); format: physicochemical
How it was run: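 Compounds at 25 umol/L were held at 37 °C in 50 mM citrate (pH 5.0, 5.5) or phosphate (pH 6.0–7.4) buffers. Remaining compound and Alvocidib formed were quantified by HPLC at 0, 0.5, 1, 2 and 3 h.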

[5] = Evaluation of conversion rate to active form in human plasma (Experimental Example 3); format: in vitro ADME; details: human, 0.2 μmol/L
Method: as §2, §3, §4

[6] = mice, 2.5 mg/kg administration; cited from earlier work
[7] = Compound concentration when encapsulated 5 mg/mL
[8] = Compound concentration when encapsulated 10 mg/mL

Encapsulated compound content per 50 μmol of lipid [1, 7]: 4.8 mg | Encapsulation efficiency [1, 7]: 96.2% | Encapsulation rate [1, 7]: 99.5% | Encapsulation rate [1, 8]: not encapsulated due to gelation | Encapsulation in liposomes ([1]; concentration 5 mg/mL): could be encapsulated in liposomes | Encapsulation in liposomes ([1]; concentration of 10 mg/mL): could not be encapsulated in liposomes
Compound: CN1CC[C@H](c2c(O)cc(O)c3c(=O)cc(-c4ccccc4Cl)oc23)[C@H](O)C1.Cl [Alvocidib hydrochloride, 2-(2-chlorophenyl)-5,7-dihydroxy-8-[(3S,4R)-3-hydroxy-1-methylpiperidin-4-yl]-4H-chromen-4-one hydrochloride, reference compound]

Blood retention of liposome formulation compared with the corresponding solution formulation [2]: did not show improved blood retention | Production rate (%) of Alvocidib ([3]; 0 min): 6% | Residual rate (%) of test compound ([3]; 0 min): 100% | Production rate (%) of Alvocidib ([3]; 60 min): 48% | Residual rate (%) of test compound ([3]; 60 min): 48% | Production rate (%) of Alvocidib ([3]; 120 min): 66% | Residual rate (%) of test compound ([3]; 120 min): 33% | Production rate of Alvocidib ([4]; pH7.4, 0 hr): 4.3% | Residual rate ([4]; pH7.4, 0 hr): 93.7% | Conversion to Alvocidib at pH 7.4 ([4]; pH 7.4, 37° C., up to 3 hours): slowly converted to Alvocidib | Production rate of Alvocidib ([4]; pH7.4, 0.5 hr): 4.4% | Residual rate ([4]; pH7.4, 0.5 hr): 93.6% | Production rate of Alvocidib ([4]; pH7.4, 1 hr): 4.5% | Residual rate ([4]; pH7.4, 1 hr): 95.1% | Production rate of Alvocidib ([4]; pH7.4, 2 hr): 4.7% | Residual rate ([4]; pH7.4, 2 hr): 94.9% | Production rate (%) of Alvocidib ([5]; 0 min): 5% | Residual rate (%) of test compound ([5]; 0 min): 100% | Production rate (%) of Alvocidib ([5]; 60 min): 12% | Residual rate (%) of test compound ([5]; 60 min): 89% | Production rate (%) of Alvocidib ([5]; 120 min): 15% | Residual rate (%) of test compound ([5]; 120 min): 89%
Compound: CCC(=O)O[C@@H]1CN(C)CC[C@@H]1c1c(O)cc(O)c2c(=O)cc(-c3ccccc3Cl)oc12 [Comparative Example 6]

Compound: CN1CC[C@H](c2c(O)cc(O)c3c(=O)cc(-c4ccccc4Cl)oc23)[C@H](O)C1 [Alvocidib]
AUC [6]: 3.4 µmol·min/L

Compound: CN1CC[C@H](c2c(OC(=O)N(C)C[C@@H]3COCCN3)cc(O)c3c(=O)cc(-c4ccccc4Cl)oc23)[C@H](O)C1 [Example 17, 2-(2-chlorophenyl)-5-hydroxy-8-[(3S,4R)-3-hydroxy-1-methylpiperidin-4-yl]-4-oxo-4H-1-benzopyran-7-yl methyl{[(3R)-morpholin-3-yl]methyl}carbamate]
Encapsulated compound content per 50 μmol of lipid [1, 8]: 2.4 mg | Encapsulation efficiency [1, 8]: 23.8% | Encapsulation rate [1, 8]: 26.5%
